Assay results published in article PMC9166630, “SAR Probing of KX2-391 Provided Analogues With Juxtaposed Activity Profile Against Major Oncogenic Kinases” (Frontiers in Oncology, 2022).
Values joined by “and” are separate entries in the source; they are usually repeats but may differ in a detail not shown here. Equal entries are not always repeated.

Experiments:
ERK1/2 = experiment: Human phosphokinase array, ERK1/2; type: cell-based
From the text: (§1) The kinome tree representation (Figure 7C), which was generated by raising the Kinase Score cut-off to >1.2, confirmed that, unlike tirbanibulin and our prototype molecule KX1-136, 4e’s effects were more observable on kinases other than the Src family such as the Eph and TEC families. […] Therefore, we screened compound 4e using the Human Phospho-Kinase Array® kit from R&D systems (Minneapolis, MN, USA). In this system, 35 phosphorylated YK and serine-threonine kinase (STK) enzymes in the untreated (control) and treated (test) HL60 cell lysates were captured on nitrocellulose membrane, pre-spotted with phosphokinase-specific capture antibodies, and then visualized by detection antibody cocktails (Figure 8). The difference in the spot intensity between untreated (control) and treated cells is proportional to change in the amount of the phosphorylated protein induced by 4e.
(§2) The phosphorylation profile of 48 kinases was performed using the Proteome Profiler Human Phospho-Kinase Antibody Array Kit by R&D Systems (Minneapolis, MN, USA) according to the protocol. Briefly, the total cellular protein was extracted using the Lysis buffer and was quantified using Bio-Rad DC Protein Assay kit (Hercules, CA, USA). Nitrocellulose membrane set (A&B), pre-spotted with kinase-specific capture antibodies, were first blocked with Array Buffer-1 at RT for 30 min on a rocking platform shaker. Approximately 600 µg of protein concentrate was diluted in the buffer provided and was added onto the membrane set, and the membranes were incubated overnight at 4°C in an 8-well plate. Subsequently, membranes were washed with Wash Buffer and incubated with appropriate Detection Antibody cocktails for 2 h at RT. Streptavadin-HRP (1:2000) was added onto membranes and incubated for 30 min at RT. Membranes were washed, and Chemiluminescent Detection Reagents 1&2 were applied in equal volumes for detection. The signals were detected on C-DiGit®Blot Scanner (LI-COR, Odyssey Imaging Systems, Lincoln, Nebraska, USA) using Image Studio 5.0 software.

GSK-3α/β = experiment: Human phosphokinase array, GSK-3α/β; type: cell-based
From the text: as §1, §2

EphA5 = molecular target: T1, EphA5 (Homo sapiens, UniProt P54756); experiment: PamChip tyrosine kinase microarray, EphA5; type: biochemical; conditions: 4e 0.1 µM, HL60 lysate
T1 construct: endogenous in cells; host or cells: HL60 lysate
T1 sequence (P54756 25-1037): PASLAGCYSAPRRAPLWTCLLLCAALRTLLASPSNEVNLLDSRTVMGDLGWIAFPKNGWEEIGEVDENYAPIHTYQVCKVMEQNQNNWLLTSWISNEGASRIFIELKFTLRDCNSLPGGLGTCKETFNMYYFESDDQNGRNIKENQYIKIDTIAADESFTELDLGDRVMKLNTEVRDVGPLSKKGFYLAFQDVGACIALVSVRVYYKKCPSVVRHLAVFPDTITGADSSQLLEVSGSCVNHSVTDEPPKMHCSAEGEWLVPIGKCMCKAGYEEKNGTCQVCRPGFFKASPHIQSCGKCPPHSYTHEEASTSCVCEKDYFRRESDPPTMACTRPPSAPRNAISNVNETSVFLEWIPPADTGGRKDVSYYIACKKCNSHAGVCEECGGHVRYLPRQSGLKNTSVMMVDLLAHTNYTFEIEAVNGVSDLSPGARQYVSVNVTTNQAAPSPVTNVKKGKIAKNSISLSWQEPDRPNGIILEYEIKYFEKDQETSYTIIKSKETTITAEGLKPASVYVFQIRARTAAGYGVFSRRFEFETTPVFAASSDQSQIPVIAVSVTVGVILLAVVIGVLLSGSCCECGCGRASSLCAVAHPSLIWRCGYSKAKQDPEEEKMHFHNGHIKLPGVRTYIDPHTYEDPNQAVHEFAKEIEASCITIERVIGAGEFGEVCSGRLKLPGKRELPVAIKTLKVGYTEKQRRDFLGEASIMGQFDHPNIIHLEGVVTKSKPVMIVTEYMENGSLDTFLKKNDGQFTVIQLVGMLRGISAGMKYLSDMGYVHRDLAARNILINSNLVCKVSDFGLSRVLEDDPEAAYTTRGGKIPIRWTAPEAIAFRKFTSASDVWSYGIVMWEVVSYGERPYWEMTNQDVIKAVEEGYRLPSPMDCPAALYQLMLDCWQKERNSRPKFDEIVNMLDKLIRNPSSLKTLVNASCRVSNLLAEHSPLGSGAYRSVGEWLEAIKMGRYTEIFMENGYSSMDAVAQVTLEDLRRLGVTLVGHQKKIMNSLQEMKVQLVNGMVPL
Method: (§3) The changes in kinase activities induced by treatment with 4e were monitored within the HL60 cell lines using PamGene’s (Hertogenbosch, Netherlands) PamChip® peptide microarray profiler, which quantifies the activities of 144 tyrosine kinases (YK) ([29], [30]) (Figure 7). Results are provided as a log fold change (LFC) heatmap and Mean Kinase Statistic. From the LFC it is apparent that compound 4e, at a concentration of 0.1 µM, induced sizable changes to the activity of several kinases within the cell signaling YK profile (Figure 7A).
(§4) An Upstream Kinase tool was used to generate a putative list of kinases responsible for phosphorylating the phospho-sites on the PamChip (Figure 7B) ([31]). It is an interpretation and is highly dependent on the contents of the underlying phosphorylation databases. A Kinase Score was used for ranking kinases based on their significance and specificity in terms of the set of peptides used for the corresponding kinase. Kinase Statistics indicates the overall change of the peptide set that represents the kinase. Kinase statistics value <0 indicates lower kinase activity in the compound spiked lysate and vice versa ([32], [33]). Table 5 lists the 20 most changed kinases within treated HL60 cell lysates by 0.1 μM 4e, ranked according to their Kinase Score.
(§5) The compound 4e was spiked into HL60 cell lysate at different concentrations (0.001, 0.01, 0.1, 1, 10 and 50 μM). In addition, DMSO was also spiked in HL60 lysate at low concentration (2% v/v) as control. Samples were profiled on PamGene’s Tyrosine Kinase (PTK) arrays in technical replicates, covering a total of 196 phosphorylation sites. Frozen HL60 cultured cell pellet was sent to PamGene. At PamGene, cells were lysed using a lysis buffer and proteases inhibitors cocktail. Protein concentration was measured using standard Bradford assay as per PamGene SOPs. These lysates were further used for generating the PTK activity profiles. For spiking, 4e was received as powder form and dissolved in DMSO at PamGene facility followed by storing at -20°C in small aliquots. PamGene used its in-house bioinformatics toolbox in combination with other methods to generate hypotheses of signaling pathways.

Srm = molecular target: T2, Srm (Homo sapiens, UniProt Q9H3Y6); experiment: PamChip tyrosine kinase microarray, Srm; type: biochemical; conditions: 4e 0.1 µM, HL60 lysate
T2 construct: endogenous in cells; host or cells: HL60 lysate
T2 sequence (Q9H3Y6 whole entry): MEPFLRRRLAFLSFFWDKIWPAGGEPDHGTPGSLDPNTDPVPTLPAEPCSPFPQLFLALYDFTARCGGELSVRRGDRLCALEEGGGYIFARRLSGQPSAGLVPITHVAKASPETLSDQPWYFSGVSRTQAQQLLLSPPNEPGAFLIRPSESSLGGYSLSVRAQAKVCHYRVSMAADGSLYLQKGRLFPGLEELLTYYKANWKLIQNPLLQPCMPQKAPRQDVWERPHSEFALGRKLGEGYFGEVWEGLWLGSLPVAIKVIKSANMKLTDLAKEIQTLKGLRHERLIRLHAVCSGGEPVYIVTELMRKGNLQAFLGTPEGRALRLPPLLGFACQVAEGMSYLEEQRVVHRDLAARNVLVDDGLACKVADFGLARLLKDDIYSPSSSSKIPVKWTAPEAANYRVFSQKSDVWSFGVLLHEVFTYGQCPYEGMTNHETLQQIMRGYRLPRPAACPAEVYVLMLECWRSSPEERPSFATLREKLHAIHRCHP
Method: as §3, §4, §5

EphA1 = molecular target: T3, EphA1 (Homo sapiens, UniProt P21709); experiment: PamChip tyrosine kinase microarray, EphA1; type: biochemical; conditions: 4e 0.1 µM, HL60 lysate
T3 construct: endogenous in cells; host or cells: HL60 lysate
T3 sequence (P21709 26-976): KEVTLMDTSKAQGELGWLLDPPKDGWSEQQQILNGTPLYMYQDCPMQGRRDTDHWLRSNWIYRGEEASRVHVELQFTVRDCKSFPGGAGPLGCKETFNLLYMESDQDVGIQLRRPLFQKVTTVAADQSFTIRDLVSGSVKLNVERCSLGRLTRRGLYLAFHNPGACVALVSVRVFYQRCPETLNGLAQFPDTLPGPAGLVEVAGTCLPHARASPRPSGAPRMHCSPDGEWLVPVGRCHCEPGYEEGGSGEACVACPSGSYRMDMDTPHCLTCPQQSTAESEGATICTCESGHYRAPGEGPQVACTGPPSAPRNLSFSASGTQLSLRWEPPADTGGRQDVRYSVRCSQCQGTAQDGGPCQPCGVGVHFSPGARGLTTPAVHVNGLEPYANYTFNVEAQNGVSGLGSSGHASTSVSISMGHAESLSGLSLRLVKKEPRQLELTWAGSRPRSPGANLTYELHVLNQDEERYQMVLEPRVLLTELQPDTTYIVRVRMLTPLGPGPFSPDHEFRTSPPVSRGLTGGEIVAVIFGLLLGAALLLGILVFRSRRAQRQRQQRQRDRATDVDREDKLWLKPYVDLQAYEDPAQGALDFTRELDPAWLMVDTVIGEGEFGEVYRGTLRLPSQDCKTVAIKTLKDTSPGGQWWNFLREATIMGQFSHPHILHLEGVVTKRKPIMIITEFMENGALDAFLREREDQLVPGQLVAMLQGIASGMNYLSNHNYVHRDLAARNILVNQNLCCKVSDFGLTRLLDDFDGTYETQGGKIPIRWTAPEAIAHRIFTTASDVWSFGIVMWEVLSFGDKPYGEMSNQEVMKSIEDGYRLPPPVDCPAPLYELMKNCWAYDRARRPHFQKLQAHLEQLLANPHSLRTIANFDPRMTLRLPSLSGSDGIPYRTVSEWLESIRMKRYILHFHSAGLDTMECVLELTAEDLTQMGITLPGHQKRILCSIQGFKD
Method: as §3, §4, §5

O=C(Cc1ccc(NC(=O)c2cccc(Cl)c2)cc1)NCc1ccccc1 [Compound 4e, N-(4-(2-(benzylamino)-2-oxoethyl)phenyl)-3-chlorobenzamide] was tested, and the “reduction of ERK1/2 activity” value (ERK1/2; HL60, kinase profiling) was > 99%, the “phosphokinase signal after 4e exposure, ERK1/2” value (ERK1/2; HL60 cell lysate, treated) was 1.05 and the “% Change, ERK1/2” value (ERK1/2; treated vs untreated HL60) was -99.41%. The “Change in Signal, ERK1/2” value (ERK1/2; treated vs untreated HL60) was -177.83, the “phosphokinase signal after 4e exposure, GSK-3α/β” value (GSK-3α/β; HL60 cell lysate, treated) was 102.64 and the “Change in Signal, GSK-3α/β” value (GSK-3α/β; treated vs untreated HL60) was 22.94. The “% Change, GSK-3α/β” value (GSK-3α/β; treated vs untreated HL60, Ser9 phosphorylation) was 28.78% and 28%, the “Mean Final Score” value (EphA5) was 2.9453 and the “Mean Kinase Statistic” value (EphA5) was -0.8931. For the same compound, the “Mean Significance Score” value (EphA5) was 1.7474, the “Mean Specificity Score” value (EphA5) was 1.1979 and the “Mean Final Score” value (Srm) was 2.2692. The “Mean Kinase Statistic” value (Srm) was -0.5863, the “Mean Significance Score” value (Srm) was 1.1518 and the “Mean Specificity Score” value (Srm) was 1.1174. The “Mean Final Score” value (EphA1) was 1.8401, the “Mean Kinase Statistic” value (EphA1) was -0.6954 and the “Mean Significance Score” value (EphA1) was 1.1254. For the same compound, the “Mean Specificity Score” value (EphA1) was 0.7147.
